Reference: patent US20160158200A1, “Combinations of Hepatitis C Virus Inhibitors” (priority 2013, published 2016)

Experiments:
[1] = test system: HCV genotype 1a Y93H variant with tyrosine 93 changed to histidine in the NS5A protein; experiment: microbe, parasite or virus in culture; assay type: cell-based; settings: genotype 1a Y93H replicon; test compound titrated with compound N47 fixed at 200 nM versus singly
Summary of the method: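 In an HCV genotype 1a replicon cell-based assay carrying the NS5A Y93H substitution, BMS-790052 was tested alone and in combination with a fixed amount of a second test compound. The combinations were examined for synergistic activity.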

[2] = test system: HCV genotype 1a L31V variant with leucine 31 changed to valine in the NS5A protein; experiment: microbe, parasite or virus in culture; assay type: cell-based; settings: genotype 1a L31V replicon; test compound titrated with compound N47 fixed at 200 nM versus singly

With `COC(=O)N[C@H](C(=O)N1CCC[C@H]1c1ncc(-c2ccc(-c3ccc4c(c3)CCCc3[nH]c([C@@H]5CCCN5C(=O)[C@@H](NC(=O)OC)C(C)C)nc3-4)cc2)[nH]1)C(C)C` the “Fold-Synergistic G-1a (Y93H)” value [1] was >100 fold and the “Fold-Synergistic G-1a (L31V)” value [2] was >100 fold.

For `Cc1nc2cccc(-c3ncc(-c4ccc5nc([C@@H]6CCCN6C(=O)[C@@H](c6ccccc6)N(C)C)[nH]c5c4)o3)c2[nH]1`, the “Fold-Synergistic G-1a (Y93H)” value [1] was <10 fold and the “Fold-Synergistic G-1a (L31V)” value [2] was <10 fold.

In the case of `COC(=O)N[C@H](C(=O)N1CCC[C@H]1c1nc2cc(C#Cc3ccc(-c4[nH]cnc4[C@@H]4CCCN4C(=O)[C@@H](NC(=O)OC)C(C)C)cc3)ccc2[nH]1)C(C)C`, the “Fold-Synergistic G-1a (Y93H)” value [1] is reported as >10 fold and the “Fold-Synergistic G-1a (L31V)” value [2] is reported as <10 fold.

With `O=C1[C@@H]2CCCN2C(=O)C(c2ccccc2)N1c1ccc(/C=C/c2ccc(N3C(=O)[C@@H]4CCCN4C(=O)C3c3ccccc3)cc2)cc1` (stereo partly shown) the “Fold-Synergistic G-1a (Y93H)” value [1] was <10 fold and the “Fold-Synergistic G-1a (L31V)” value [2] was <10 fold.

With `COC(=O)N[C@H](C(=O)N1[C@@H]2C[C@@H]2C[C@H]1c1ncc(-c2ccc(C#Cc3ccc(-c4cnc([C@@H]5C[C@H]6C[C@H]6N5C(=O)[C@@H](NC(=O)OC)C(C)C)[nH]4)cc3C)c(C)c2)[nH]1)C(C)C` the “Fold-Synergistic G-1a (Y93H)” value [1] was <10 fold and the “Fold-Synergistic G-1a (L31V)” value [2] was <10 fold.

`COC(=O)N[C@H](C(=O)N1[C@@H]2C[C@@H]2C[C@H]1c1ncc(-c2cccc(-c3ccc4cc(-c5cnc([C@H]6C[C@@H]7C[C@@H]7N6C(=O)[C@@H](NC(=O)OC)C(C)C)[nH]5)ccc4c3)c2)[nH]1)C(C)C` was tested, and the “Fold-Synergistic G-1a (Y93H)” value [1] was >10 fold and the “Fold-Synergistic G-1a (L31V)” value [2] was <10 fold.

For `COC(=O)N[C@@H](C)C(=O)N1[C@@H]2CC[C@@H](C2)[C@H]1c1nc(-c2ccc(-c3ccc(-c4cnc([C@@H]5[C@H]6CC[C@H](C6)N5C(=O)[C@H](C)NC(=O)OC)[nH]4)cc3)cc2)c[nH]1`, the “Fold-Synergistic G-1a (Y93H)” value [1] was <10 fold and the “Fold-Synergistic G-1a (L31V)” value [2] was >10 fold.

With `COC(=O)N[C@H](C(=O)N1[C@@H]2C[C@@H]2C[C@H]1c1nc(Cl)c(-c2ccc(-c3ccc(-c4[nH]c([C@@H]5C[C@H]6C[C@H]6N5C(=O)[C@@H](NC(=O)OC)C(C)C)nc4Cl)cc3)cc2)[nH]1)C(C)C` the “Fold-Synergistic G-1a (Y93H)” value [1] was <10 fold and the “Fold-Synergistic G-1a (L31V)” value [2] was >10 fold.

In the case of `O=C(Cc1ccccc1)N1CCC[C@H]1c1nc2cc(-c3ccc4nc([C@@H]5CCCN5C(=O)Cc5ccccc5)[nH]c4c3)ccc2[nH]1`, the “Fold-Synergistic G-1a (Y93H)” value [1] is reported as <10 fold and the “Fold-Synergistic G-1a (L31V)” value [2] is reported as <10 fold.

For `COC(=O)N[C@H](C(=O)N1CCC[C@H]1c1nc2ccc(Oc3ccc(-c4ccc5nc([C@@H]6CCCN6C(=O)[C@@H](NC(=O)OC)C(C)C)[nH]c5c4)cc3)cc2[nH]1)C(C)C`, the “Fold-Synergistic G-1a (Y93H)” value [1] was <10 fold and the “Fold-Synergistic G-1a (L31V)” value [2] was <10 fold.

In the case of `COC(=O)N[C@@H](C(=O)N1CCC[C@H]1c1nc2cc(-c3ccc(-c4ccc5c(ccc6[nH]c([C@@H]7CCCN7C(=O)[C@H](NC(=O)OC)c7ccccc7)nc65)c4)cc3)ccc2[nH]1)c1ccccc1`, the “Fold-Synergistic G-1a (Y93H)” value [1] is reported as <10 fold and the “Fold-Synergistic G-1a (L31V)” value [2] is reported as <10 fold.

With `COC(=O)N[C@H](C(=O)N1CCC[C@H]1c1nc(-c2ccc(-c3ccc4nc([C@@H]5CCCN5C(=O)[C@@H](NC(=O)OC)C(C)C)[nH]c4c3)cc2)c[nH]1)C(C)C` the “Fold-Synergistic G-1a (Y93H)” value [1] was >100 fold and the “Fold-Synergistic G-1a (L31V)” value [2] was >10 fold.

`COC(=O)N[C@H](C(=O)N1[C@@H]2C[C@@H]2C[C@H]1c1ncc(-c2ccc3cc(-c4ccc5[nH]c([C@@H]6C[C@H]7C[C@H]7N6C(=O)[C@@H](NC(=O)OC)C(C)C)nc5c4)ccc3c2)[nH]1)C(C)C` was tested, and the “Fold-Synergistic G-1a (Y93H)” value [1] was >100 fold and the “Fold-Synergistic G-1a (L31V)” value [2] was >100 fold.

`COC(=O)N[C@H](C(=O)N1[C@H]2C[C@@]2(C)C[C@H]1c1ncc(-c2ccc(-c3ccc(-c4cnc([C@@H]5C[C@]6(C)C[C@@H]6N5C(=O)[C@@H](NC(=O)OC)C(C)C)[nH]4)cc3)cc2)[nH]1)C(C)C` was tested, and the “Fold-Synergistic G-1a (Y93H)” value [1] was >100 fold and the “Fold-Synergistic G-1a (L31V)” value [2] was >100 fold.
